Measurements published in ChEMBL document CHEMBL3739293, “Synthesis of unusual isoxazoline containingand-dipeptides as potential glutamate receptor ligands” (Medchemcomm, 2015).

Tests used:
[1] = biological target: Glutamate NMDA receptor; assay: Displacement of [3H]CGP39653 from NMDA receptor in Sprague-Dawley rat brain synaptic membrane
[2] = Displacement of [3H]AMPA from AMPA receptor in Sprague-Dawley rat brain synaptic membrane
[3] = Displacement of [3H]KA from KA receptor in Sprague-Dawley rat brain synaptic membrane

Row | Ki [1] [µM] | pKi [1] | IC50 [2] [µM] | pIC50 [2] | IC50 [3] [µM] | pIC50 [3] | SMILES
1 | 24 | 4.64 | 46 | 4.34 | 66 | 4.2 | N[C@@H](CCC(=O)N1C[C@@H]2ON=C(C(=O)O)[C@@H]2C1)C(=O)O
2 | 28 | 4.56 | 67 | 4.18 | 56 | 4.25 | N[C@H](CCC(=O)N1C[C@@H]2ON=C(C(=O)O)[C@@H]2C1)C(=O)O (single isomer, unassigned)
3 | 21 | 4.68 | 34 | 4.48 | 40 | 4.39 | N[C@@H](CCC(=O)N1C[C@@H]2C(C(=O)O)=NO[C@@H]2C1)C(=O)O (single isomer, unassigned)
4 | > 100 |  | > 100 |  | > 100 |  | N[C@H](CCC(=O)N1C[C@@H]2ON=C(O)[C@@H]2C1)C(=O)O (single isomer, unassigned)

More lines, now with the values behind:

Row | SMILES | Ki [1] [µM] | pKi [1] | IC50 [2] [µM] | pIC50 [2] | IC50 [3] [µM] | pIC50 [3]
5 | N[C@@H](CCC(=O)N1C[C@@H]2ON=C(O)[C@@H]2C1)C(=O)O | 25 | 4.63 | 43 | 4.37 | 37 | 4.43
6 | N[C@H](CCC(=O)N1C[C@@H]2C(C(=O)O)=NO[C@@H]2C1)C(=O)O | 58 | 4.24 | > 100 |  | > 100 | 
7 | N[C@H](CCC(=O)N1C[C@@H]2C(O)=NO[C@@H]2C1)C(=O)O | > 100 |  | > 100 |  | > 100 | 
8 | N[C@@H](CCC(=O)N1C[C@@H]2C(O)=NO[C@@H]2C1)C(=O)O (single isomer, unassigned) | 41 | 4.41 | 48 | 4.36 | 59 | 4.23
